Assays:
[1] = test system: pancreatic acinar cells; test: Effect of growth factors on insulin-positive cell induction in main culture of pancreatic acinar cells; type: cell-based, mouse; conditions: day 7 of culture, EGF 20 ng/ml, HGF, FGF7 and FGF10 10 ng/ml, GLP-1 30 ng/ml; for proportion of insulin-positive cells: rank among growth factors (FIG. 8B)
Protocol: Eight-week old male mice (C57B1/6Cr Slc)(Japan SLC, Inc.: Hamamatsu, Japan) were anesthetized with 50 mg/kg of Nembtal (Dainippon Pharma Co., Ltd.: Osaka, Japan) and subjected to laparotomy. The choledoch duct was ligated near the position where it opens to the duodenum. Using a 27G winged needle (Terumo Corporation: Tokyo, Japan), 2-3 ml of Hank's buffer containing 0.05% collagenase P (Roche: Basel, Switzerland) and 10% fetal bovine serum was infused from the liver side. The pancreas, now swollen, was extracted and digested in 5 ml of Hank's buffer per pancreas for 18 minutes at 37° C. The digested pancreas then was made to pass through a 14G indwelling needle in both directions twice to disperse the pancreatic cells, which washed well with Hank's buffer containing 0.1% bovine serum albumin (Sigma: Saint Louis, Mo., USA). The pancreatic cells thus obtained were suspended in a mixed solution (solution A) consisting of 8.3% Ficoll 400 (Amersham Bioscience: Uppsala, Sweden) and 16.7% Conray 400 (Daiichi Pharmaceutical, Tokyo, Japan), and after a 87.5%-diluted solution of solution A and then a 50%-diluted solution of solution A were placed on it in the order, centrifuged (2,000 rpm, 10 min). Pancreatic acinar cells condensed in the spun down, lowest fraction were collected, and to them was added a sterilized 0.1 mg/ml solution of dithizone (1,5-diphenylthiocarbazone) (Nacalai Tesque, Inc.: Kyoto, Japan) and stained for 15 minutes at 37° C. in order to remove contaminating mature B-cells. Mature B-cells are stained red with dithizone, which is a chelating agent for zinc, for high concentration of insulin occurs in mature B-cells in the form of a hexamer via zinc (Latif et al., Transplantation, 45:827(1988)). By removing red-stained mature B-cells under a stereomicroscope, a fraction containing highly concentrated pancreatic acinar cells were obtained. […]

[2] = test system: pancreatic acinar cells; test: Correlation between EGF concentration and induction of colonies containing insulin-positive cells; type: cell-based, mouse; conditions: 0.5% fetal bovine serum (FIG. 9)
Protocol: The recovered cells were suspended in a nutrition medium (e.g., RPMI-1640) containing 0.5% fetal bovine serum (Sigma) and 20 ng/ml epidermal growth factor (EGF) (R&D Systems: Minneapolis, Minn., USA), and inoculated in cell culture dishes which were less adhesive for cells (Nalge Nunc: Rochester, N.Y., USA) and cultured in an incubator set at 37° C., 5% CO2. The pancreatic acinar cells, at early stages of culture, formed cell clusters having smooth boundaries consisting of congregated cells and, and kept themselves floating (FIG. 1A), and, at around day 3, adhere to the bottom of the dish and started to extend on it. After about 7 days, they formed relatively small cell aggregates (colonies) consisting of several dozen to several hundred cells (FIG. 1B). The cell density upon inoculation, which ranged from 1- to 10-fold dilution of that in pre-culture, had no influence on the form of the colonies observed.
In accordance with the method described in Example 1, except that the concentration of fetal bovine serum was fixed at 0.5% and EGF was used as the growth factor at a concentration of 0, 2, 20 or 200 ng/ml, main culture of pancreatic acinar cells were performed to assess the effect of EGF on induction of aimed cells (cells forming colonies containing insulin-positive cells as shown in FIG. 1B).

Row | Substance | total cell count (growth of the cells) ([1]; rank among growth factors (FIG. 8A)) | proportion of insulin-positive cells [1] | effect on induction of aimed cells (cells forming colonies containing insulin-positive cells) ([2]; EGF 20 ng/ml) | effect on induction of aimed cells (cells forming colonies containing insulin-positive cells) ([2]; EGF 200 ng/ml)
1 | epidermal growth factor [EGF, epidermal growth factor (R&D Systems), growth factor added to the culture medium] | most effective | most effective | remarkable effect | remarkable effect
2 | hepatocyte growth factor [HGF] |  | this was followed by FGF10 and HGF |  | 

From US20070231897A1, “Induction of Insulin Secreting Cell” (KYOTO UNIVERSITY, priority 2004, published 2007)
